# Test results reported in patent publication US7902195B2, “Pyridine [3,4-b] pyrazinones” (Pharmacia & Upjohn Company LLC, priority 2006, dated 2011).
# Molecular target: T1, PDE5 enzyme isolated from human platelets (Homo sapiens, UniProt O76074)
# T1 construct: The PDE5 enzyme for use in the assay can be obtained from human platelets; from tissue; host or cells: human platelets
# Experiment: Alternative human platelet PDE5 enzyme inhibition scintillation proximity assay (Method 2)
# Format: biochemical
# Details: cGMP substrate 50 nM, 60 minutes at room temperature
# Source text: The IC50 of a test compound can be measured using an in vitro assay using PDE5 enzyme isolated from human platelets. The IC50 is the concentration of test compound required to inhibit the hydrolysis of cGMP to GMP by the PDE5 enzyme by 50% relative to the activity of uninhibited controls. The PDE5 enzyme for use in the assay can be obtained from human platelets by appropriate modification of the method of Thompson, W J et al.; Biochemistry 18(23), 5228-5237, 1979, as described by Ballard S A et al.; J. Urology 159(6), 2164-2171, 1998. The PDE5 enzyme so obtained can be used to catalyze the hydrolysis of [^3H]cGMP (Amersham Biosciences) to 5′ nucleotide [^3H]GMP. The [^3H]GMP binds to yttrium silicate SPA beads (Amersham Biosciences) and is detected by scintillation counting. More specifically, the effect of a test compound at different concentrations can be evaluated in the assay by contacting the compound with a fixed amount of PDE5 enzyme in the presence of substrate (cGMP […] in a 3:1 ratio unlabelled to [^3H]-labeled). Scintillation counting can be used as described above to determine relative PDE5 enzyme activity. The inhibition of PDE5 enzyme activity is then calculated relative to total PDE5 enzyme activity of uninhibited controls.
# Method 2: Alternative Human Platelet PDE5 Enzyme Inhibition Scintillation Proximity Assay
# PDE5 IC50 Assay: 96-Well Microtiter Plate Format
# Buffer A: 20 mM Tris-HCl, 5 mM MgCl2, pH 7.4
# Buffer B: 2 mg/ml BSA in Buffer A (enzyme buffer)
# cGMP substrate: Final concentration of 50 nM in assay
# The amount of ^3H-labeled substrate added depends upon the specific activity of [^3H]cGMP, and it is diluted in Buffer A.
# PDE enzyme: Prepared in Buffer B. The dilution factor is determined by enzyme activity.
# SPA beads: 4 mg/ml suspension prepared in dH2O.
# Stocks of standard and test compound are prepared at 2 mM in 100% DMSO. The test compound is serially diluted in a dilution plate using an 8-point ⅕ log dilution format such that the starting concentration in the assay is 2 μM for an initial IC50 screen. 27 μl of Buffer A are added to the wells of the assay plates. From the dilution plate, 3 μl of diluted compound is delivered in duplicate or 3 μl of 100% DMSO (for positive and negative controls) are added. 30 μl of enzyme are added. For the negative control wells, Buffer B is substituted in place of the enzyme. 30 μl of labeled substrate are added to all wells.
# After incubating for 60 minutes at room temperature, the reaction is stopped with the addition of 30 μl of the yttrium silicate beads. These beads are dense and require constant agitation while being added to the plate. The plates are sealed and shaken on a plate shaker for fifteen minutes to allow the beads to bind the GMP product.
# After allowing the beads to settle for 30 minutes, plates are read on a NXT TopCount scintillation counter and the data are analyzed as follows. Percent inhibition values are calculated using the means of the 0% and 100% controls on each plate. The estimates of the 4-parameters of the logistic, sigmoid dose-response model are then calculated using the well-level percent inhibition value for the compound. The formula for the four-parameter logistic model may be expressed as Y=((a−d)/(1+(X/c)^b))+d, where Y is the response, X is the concentration, a is the lower asymptote (minimum response), d is the upper asymptote (maximum response), c is the model IC50 (in the same units as X), and b is the slope (as described in De Lean, A., P. J. Munson, and D. Rodbard (“Simultaneous analysis of families of sigmoidal curves: application to bioassay, radioligand assay, and physiological dose-response curves.” Am. J. Physiol. 235(2): E97-E102, 1978). These estimates are used to calculate the concentration that corresponds to 50% inhibition.
# Compounds were tested in accordance with Method 2 above yielding the IC50 values described in Table C.
row,Compound,IC50
1,"CCCOCCn1c(=O)c(N2CCC(O)C2)nc2cnc(-c3ccc(OC)nc3)cc21 (stereo not shown) [Example 42, 3-(3-hydroxypyrrolidin-1-yl)-7-(6-methoxypyridin-3-yl)-1-(2-Propoxyethyl)pyrido[3,4-b]pyrazin-2(1H)-one]",0.421 nM
2,"CCCOCCn1c(=O)c(N2CCCC(O)C2)nc2cnc(-c3ccc(OC)nc3)cc21 (stereo not shown) [Example 4, 3-(3-hydroxypiperidin-1-yl)-7-(6-methoxypyridin-3-yl)-1-(2-propoxyethyl)pyrido[3,4-b]pyrazin-2(1H)-one]",0.225 nM
3,"CCCOCCn1c(=O)c(N2CCN(C[C@H](C)O)CC2)nc2cnc(-c3ccc(OC)nc3)cc21 [Example 46, 3-(4-((S)-2-hydroxypropyl)piperazin-1-yl)-7-(6-methoxypyridin-3-yl)-1-(2-propoxyethyl)pyrido[3,4-b]pyrazin-2(1H)-one]",0.306 nM
4,"CCCOCCn1c(=O)c(N2CCOCC2)nc2cnc(-c3ccc(OC)nc3)cc21 [Example 3, 7-(6-methoxypyridin-3-yl)-3-morpholin-4-yl-1-(2-propoxyethyl)pyrido[3,4-b]pyrazin-2(1H)-one]",1.01 nM
5,"CCCOCCn1c(=O)c(N2CCN(CCO)CC2)nc2cnc(-c3cccc(CO)c3)cc21 [Example 30, 3-(4-(2-hydroxyethyl)piperazin-1-yl)-7-(3-(hydroxymethyl)phenyl)-1-(2-propoxyethyl)pyrido[3,4-b]pyrazin-2(1H)-one]",311 nM
6,"7-(4-(dimethylamino)-2-methylphenyl)-3-(4-(2-hydroxyethyl)piperazin-1-yl)-1-(2-propoxyethyl)pyrido[3,4-b]pyrazin-2(1H)-one [Example 15]",1190 nM
7,"CCCOCCn1c(=O)c(N2CCN(CCO)CC2)nc2cnc(-c3ccc(OCC)cc3)cc21 [Example 24, 7-(4-ethoxyphenyl)-3-(4-(2-hydroxyethyl)piperazin-1-yl)-1-(2-propoxyethyl)pyrido[3,4-b]pyrazin-2(1H)-one]",1400 nM
8,"CCCOCCn1c(=O)c(N2CCN(CCO)CC2)nc2cnc(-c3ccc(S(=O)(=O)CC)cc3)cc21 [Example 19, 7-(4-(ethylsulfonyl)phenyl)-3-(4-(2-hydroxyethyl)piperazin-1-yl)-1-(2-propoxyethyl)pyrido[3,4-b]pyrazin-2(1H)-one]",102 nM
9,"CCCOCCn1c(=O)c(N2CCN(CCO)CC2)nc2cnc(-c3cccnc3)cc21 [Example 31, 3-(4-(2-hydroxyethyl)piperazin-1-yl)-1-(2-propoxyethyl)-7-(pyridin-3-yl)pyrido[3,4-b]pyrazin-2(1H)-one]",45.8 nM
10,"CCCOCCn1c(=O)c(N2CCNCC2)nc2cnc(-c3ccc(OC)nc3)cc21 [Example 1, 7-(6-methoxypyridin-3-yl)-3-(piperazin-1-yl)-1-(2-propoxyethyl)pyrido[3,4-b]pyrazin-2(1H)-one]",3.28 nM
11,"CCCOCCn1c(=O)c(N2CCN(CCCO)CC2)nc2cnc(-c3ccc(OC)nc3)cc21 [Example 11, 3-[4-(3-hydroxypropyl)piperazin-1-yl]-7-(6-methoxypyridin-3-yl)-1-(2-propoxyethyl)pyrido[3,4-b]pyrazin-2(1H)-one]",0.177 nM
12,"CCCOCCn1c(=O)c(N2CCN(CCO)CC2)nc2cnc(-c3cc(Cl)ccc3F)cc21 [Example 34, 7-(5-chloro-2-fluorophenyl)-3-(4-(2-hydroxyethyl)piperazin-1-yl)-1-(2-propoxyethyl)pyrido[3,4-b]pyrazin-2(1H)-one]",12.6 nM
13,"CCCOCCn1c(=O)c(N2CCN([C@@H](C)[C@@H](C)O)CC2)nc2cnc(-c3ccc(OC)nc3)cc21 [Example 44, 3-(4-((2S,3R)-3-hydroxybutan-2-yl)piperazin-1-yl)-7-(6-methoxypyridin-3-yl)-1-(2-propoxyethyl)pyrido[3,4-b]pyrazin-2(1H)-one]",0.33 nM
14,"CCCOCCn1c(=O)c(N2CCN(C[C@@H](C)O)CC2)nc2cnc(-c3ccc(OC)nc3)cc21 [Example 47, 3-(4-((R)-2-hydroxypropyl)piperazin-1-yl)-7-(6-methoxypyridin-3-yl)-1-(2-propoxyethyl)pyrido[3,4-b]pyrazin-2(1H)-one]",0.226 nM
15,"CCCOCCn1c(=O)c(N2CCC(C(N)=O)CC2)nc2cnc(-c3ccc(OC)nc3)cc21 [Example 41, 1-(1,2-dihydro-7-(6-methoxypyridin-3-yl)-2-oxo-1-(2-propoxyethyl)pyrido[3,4-b]pyrazin-3-yl)piperidine-4-carboxamide]",0.249 nM
16,"CCCOCCn1c(=O)c(N2CCN(CCO)CC2)nc2cnc(-c3cccc(C)c3)cc21 [Example 36, 3-(4-(2-hydroxyethyl)piperazin-1-yl)-1-(2-propoxyethyl)-7-m-tolylpyrido[3,4-b]pyrazin-2(1H)-one]",423 nM
17,"CCCOCCn1c(=O)c(N2CCN(CCO)CC2)nc2cnc(-c3cccc(F)c3F)cc21 [Example 26, 7-(2,3-difluorophenyl)-3-(4-(2-hydroxyethyl)piperazin-1-yl)-1-(2-propoxyethyl)pyrido[3,4-b]pyrazin-2(1H)-one]",47.1 nM
18,"CCCOCCn1c(=O)c(N2CC(C)N(CCCO)C(C)C2)nc2cnc(-c3ccc(OC)nc3)cc21 (stereo not shown) [Example 10, 3-[4-(3-hydroxypropyl)-3,5-dimethylpiperazin-1-yl]-7-(6-methoxypyridin-3-yl)-1-(2-propoxyethyl)pyrido[3,4-b]pyrazin-2(1H)-one]",0.193 nM
19,"CCCOCCn1c(=O)c(N2CCCC(C(N)=O)C2)nc2cnc(-c3ccc(OC)nc3)cc21 (stereo not shown) [Example 40, 1-(1,2-dihydro-7-(6-methoxypyridin-3-yl)-2-oxo-1-(2-propoxyethyl)pyrido[3,4-b]pyrazin-3-yl)piperidine-3-carboxamide]",0.296 nM
20,"CCCOCCn1c(=O)c(N2CCCC(CO)C2)nc2cnc(-c3ccc(OC)nc3)cc21 (stereo not shown) [Example 6, 3-[3-(hydroxymethyl)piperidin-1-yl]-7-(6-methoxypyridin-3-yl)-1-(2-propoxyethyl)pyrido[3,4-b]pyrazin-2(1H)-one]",0.313 nM
21,"CCCOCCn1c(=O)c(N2CCN(CC(=O)OC(C)(C)C)CC2)nc2cnc(-c3ccc(OC)nc3)cc21 [Example 7, tert-butyl {4-[7-(6-methoxypyridin-3-yl)-2-oxo-1-(2-propoxyethyl)-1,2-dihydropyrido[3,4-b]pyrazin-3-yl]piperazin-1-yl}acetate]",0.083 nM
22,"CCCOCCn1c(=O)c(N2CCN(CCO)CC2)nc2cnc(-c3cccc4cnccc34)cc21 [Example 22, 3-(4-(2-hydroxyethyl)piperazin-1-yl)-7-(isoquinolin-5-yl)-1-(2-propoxyethyl)pyrido[3,4-b]pyrazin-2(1H)-one]",> 2000 nM
23,"CCCOCCn1c(=O)c(N2CCN(CCO)[C@@H](C)C2)nc2cnc(-c3ccc(OC)nc3)cc21 [Example 9, 3-[(3S)-4-(2-hydroxyethyl)-3-methylpiperazin-1-yl]-7-(6-methoxypyridin-3-yl)-1-(2-propoxyethyl)pyrido[3,4-b]pyrazin-2(1H)-one]",0.248 nM
24,"CCCOCCn1c(=O)c(N2CCN(CCO)CC2)nc2cnc(-c3ccccc3F)cc21 [Example 38, 7-(2-fluorophenyl)-3-(4-(2-hydroxyethyl)piperazin-1-yl)-1-(2-propoxyethyl)pyrido[3,4-b]pyrazin-2(1H)-one]",42.2 nM
25,"CCCOCCn1c(=O)c(N2CCN(CCO)CC2)nc2cnc(-c3ccc(OC)c(C)c3)cc21 [Example 35, 3-(4-(2-hydroxyethyl)piperazin-1-yl)-7-(4-methoxy-3-methylphenyl)-1-(2-propoxyethyl)pyrido[3,4-b]pyrazin-2(1H)-one]",1.69 nM
